# Test results as given in PubChem BioAssay AID463203 (Broad Institute, 2010).
# The source made the active and inactive calls.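 Rule for the calls: active = more than half of replicate measurements showing over 20% loss of kinase signal relative to plate controls; inconclusive = some but at most half of replicates over 20% loss; inactive = no replicate over 20% signal loss.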
# Target: Glycogen synthase kinase-3 alpha (Homo sapiens) (UniProt P49840)
# Assay: concentration-response blocking of human GSK3A – biochemical, luminescence, cell-free homogeneous, retest, dose response (AID 463203)
# Details: GSK-3 alpha enzyme, ADP-Glo luminescence, 60 min
# Sequence of Glycogen synthase kinase-3 alpha (Homo sapiens) (P49840 whole entry, looked up): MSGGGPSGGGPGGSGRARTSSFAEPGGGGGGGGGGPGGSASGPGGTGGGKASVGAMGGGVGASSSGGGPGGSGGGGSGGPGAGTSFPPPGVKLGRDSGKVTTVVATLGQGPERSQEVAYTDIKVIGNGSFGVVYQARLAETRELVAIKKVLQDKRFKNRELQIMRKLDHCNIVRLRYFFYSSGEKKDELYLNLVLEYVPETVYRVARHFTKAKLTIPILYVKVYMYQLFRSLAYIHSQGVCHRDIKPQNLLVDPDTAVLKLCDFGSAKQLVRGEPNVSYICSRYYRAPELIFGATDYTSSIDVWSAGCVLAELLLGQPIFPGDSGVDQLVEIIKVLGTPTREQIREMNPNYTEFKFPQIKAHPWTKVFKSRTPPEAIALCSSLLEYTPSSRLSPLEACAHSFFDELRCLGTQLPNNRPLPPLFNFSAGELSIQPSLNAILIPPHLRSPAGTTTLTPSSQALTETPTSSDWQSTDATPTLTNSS
row,Compound,AC50
1,Nc1nc(NCc2ccccc2)nc(NCc2ccccc2)c1[N+](=O)[O-],> 30 µM (inactive)
2,CCCOC(=O)c1[nH]c2c(c1C)C(=O)CC(c1cc(OC)c(OC)c(OC)c1)C2 (configuration not stated),> 30 µM (inactive)
3,CCN1C(=O)/C(=C2\SC(=S)N(c3c(C)n(C)n(-c4ccccc4)c3=O)C2=O)c2ccccc21,> 30 µM (inactive)
4,CC(=O)Nc1ccc(S(=O)(=O)NC(C)c2ccncc2)cc1 (configuration not stated),> 30 µM (inactive)
5,O=[N+]([O-])c1cccc(-c2ccn[nH]2)c1,> 30 µM (inactive)
6,COc1c(-c2ccc(O)cc2)oc2cc(O)cc(O)c2c1=O,6.97 µM
7,COC(=O)C1CSc2[nH]c(=O)sc2C1c1ccc(O)c(OC)c1 (configuration not stated),> 30 µM (inactive)
8,CCCCc1ccc(NC(=O)N[C@H](C(=O)O)C(C)CC)cc1 (some centres not stated),> 30 µM (inactive)
9,O=C(NCc1ccc(C(=O)N2CCC3(CC2)OCCO3)cc1)c1cccc(Br)c1,> 30 µM (inactive)
10,CC1(C)Oc2ccc3ccc(=O)oc3c2-c2cnoc21,> 30 µM (inactive)
11,Cc1ccc(-c2cn3cccnc3n2)cc1NC(=O)c1c(-c2ccccc2Cl)noc1C,> 30 µM (inactive)
12,COc1cccc(/C=N/NC(=O)COc2cccc3cccnc23)c1O,> 30 µM (inactive)
13,COc1ccc(OC)c(C2CC(=O)N3CN(c4ccccc4)CSC3=C2C#N)c1 (configuration not stated),> 30 µM (inactive)
14,CCOC(=O)c1nc(NCc2cccc(OC)c2)c2ccccc2n1,> 30 µM (inactive)
15,COc1ccc(-c2nc3ncccn3c2Nc2ccccc2)cc1,> 30 µM (inactive)
16,CC(C)c1onc(C(=O)N(C)C2CCCCC2)c1[N+](=O)[O-],> 30 µM (inactive)
17,CN(C)/C=C/c1[nH]c(=O)[nH]c(=O)c1[N+](=O)[O-],> 30 µM (inactive)
18,COC(=O)c1sc2nc(N3CCCCC3)c3c(c2c1N)CCCC3,> 30 µM (inactive)
19,COc1ccc(NC(=O)Nc2ccc(Br)c(C)c2)cc1,> 30 µM (inactive)
20,Cc1nc(N2CCOCC2)nc(N2CCCCC2)c1[N+](=O)[O-],> 30 µM (inactive)
21,COc1cc(Br)c(C2C(C#N)=C(N)Oc3n[nH]c(-c4cccnc4)c32)cc1OC (configuration not stated),> 30 µM (inactive)
22,Cc1cc(OCc2cc(C(=O)O)oc2C)c2c3c(c(=O)oc2c1)CCCC3,21.6 µM
23,c1ccc(N2CCN(c3nc4ccccc4n4cnnc34)CC2)cc1,> 30 µM (inactive)
24,CSc1nnc([C@@H](N)Cc2c[nH]c3ccccc23)o1,> 30 µM (inactive)
25,COc1ccc(-c2cn3cccnc3n2)cc1NC(=O)C(C)C,> 30 µM (inactive)
26,CN1CCC(=NNC(=O)C(=O)NC2CCCC2)CC1,> 30 µM (inactive)

row,Compound,AC50
1,CC(C)(C)c1ccc(CSc2nnc(-c3ccccc3NC(=O)c3ccccc3)o2)cc1,> 30 µM (inactive)
2,Cc1csc(NC(=O)C2CCCN(S(=O)(=O)c3cnc[nH]3)C2)n1 (configuration not stated),> 30 µM (inactive)
3,COCC(=O)Nc1ccc([N+](=O)[O-])cc1OC,> 30 µM (inactive)
4,O=C(N/N=C/c1cccnc1)c1cc2c(ccc3ccccc32)o1,> 30 µM (inactive)
5,CCOc1ccc(-c2nonc2NC(=O)c2ccco2)cc1,> 30 µM (inactive)
6,Cc1cc(C)c(NC(=O)C2CCCN2CCOC(=O)c2cccc([N+](=O)[O-])c2)c(C)c1 (configuration not stated),13.6 µM
7,COC1(OC)N=C(N)C2(C#N)C(c3cccc(Oc4ccccc4)c3)C12C#N (configuration not stated),> 30 µM (inactive)
8,COc1cc(/C=N\NC(=O)c2ccc(-c3ccccc3)cc2)cc(Br)c1O,> 30 µM (inactive)
9,Cn1cc([N+](=O)[O-])c(C(=O)Nc2cnn(Cc3ccc(F)cc3)c2)n1,> 30 µM (inactive)
10,COc1ccc(-c2noc(CSc3nc(-c4ccccc4)cc(=O)[nH]3)n2)cc1OC,> 30 µM (inactive)
11,COc1ccc(-c2nc(N)n[nH]2)cc1,> 30 µM (inactive)
12,COc1ccc(/C=C(\C#N)C(=O)N=CN(C)C)cc1,> 30 µM (inactive)
13,Cc1nc(SCC(=O)Nc2ccccc2C(F)(F)F)c(C#N)c(C)c1CC(=O)c1ccc(Br)cc1,> 30 µM (inactive)
14,CCCCOc1ccc(-c2nnc(N)s2)cc1,> 30 µM (inactive)
15,CCOc1ccc2ncc(S(=O)(=O)c3ccccc3)c(N3CCN(c4ccccc4)CC3)c2c1,> 30 µM (inactive)
16,C=CCc1cc(/C=N/n2cnnc2)cc(OCC)c1O,> 30 µM (inactive)
17,CCOC(=O)/C(C#N)=C/c1cn(CCC(=O)O)nc1-c1cccc(Br)c1,> 30 µM (inactive)
18,O=c1[nH]c(=O)n(Cc2ccco2)c(O)c1/C=N/N1CCCCC1,> 30 µM (inactive)
19,CC(=O)c1cnc(Nc2ccccc2)s1,20.2 µM
20,COc1ccc(C(=O)Nc2nc(C)cc(C)n2)cc1,> 30 µM (inactive)
21,COc1ccc(OC)c(N=c2oc3c(OC)cccc3cc2C(=O)NCc2ccco2)c1,> 30 µM (inactive)
22,CN1/C(=C\C=C(/C#N)C(=O)Nc2ccccc2F)C(C)(C)c2ccccc21,> 30 µM (inactive)
23,C=CCNc1nc(N)c(C(=O)c2ccc3c(c2)OCO3)s1,0.211 µM
24,CCn1c2ccc(Cl)cc2c2nc3ccccc3nc21,> 30 µM (inactive)
25,O=c1c(OC2OC(CO)C(O)C(O)C2O)c(-c2ccc(O)c(O)c2)oc2cc(O)cc(O)c12 (configuration not stated),> 30 µM (inactive)
26,CCOc1ccc(/C=C/C2=Cc3c(sc(NC(=O)CSc4n[nH]c(N)n4)c3C#N)C(C)(C)C2)cc1,> 30 µM (inactive)
